The source of these data is ChEMBL document CHEMBL3045359, “Synthesis, stereochemistry, and antimicrobial evaluation of t(3)-isopropyl-r(2), c(6)-di-2-furanylpiperidin- 4-one and its derivatives” (2006).

What all share (format): functional
One assay has as its system Aspergillus flavus. The assay can be described thus: Antifungal activity against Aspergillus flavus after 72 to 96 hr by two-fold serial dilution method.
For assay [1], the system named is Candida. Nature of the assay: Antifungal activity against Candida-51 after 72 to 96 hr by two-fold serial dilution method.
The test system of assay [2] is Candida. Nature of the assay: Antifungal activity against Candida-6 after 72 to 96 hr by two-fold serial dilution method.
The subject of another assay is Aspergillus niger. Nature of the assay: Antifungal activity against Aspergillus niger after 72 to 96 hr by two-fold serial dilution method.
The subject of the next assay is Staphylococcus aureus. Nature of the assay: Antibacterial activity against Staphylococcus aureus after 24 hr by two-fold serial dilution method.
A further assay has as its system Bacillus subtilis. The assay can be described thus: Antibacterial activity against Bacillus subtilis after 24 hr by two-fold serial dilution method.
The next assay relates to Pseudomonas aeruginosa. The assay can be described thus: Antibacterial activity against Pseudomonas aeruginosa after 24 hr by twofold serial dilution method.
For a further assay, the system named is Enterococcus faecalis. Nature of the assay: Antibacterial activity against Enterococcus faecalis after 24 hr by two-fold serial dilution method.

Usually MIC stands for the least concentration at which growth counts as inhibited. Higher therefore signals weaker potency.

In brackets after ≈: the same amount, converted by molar mass. Where only a bound is given, the exact number is not on record here.

For `CC(C)C1C(=O)CC(c2ccco2)N(C(=O)c2ccccc2)C1c1ccco1` (stereo unspecified), the minimum inhibitory concentration (MIC) stood at 25 µg/mL (≈ 66.2 µM) against Aspergillus flavus; 12.5 µg/mL (≈ 33.1 µM) against Candida [1]; 12.5 µg/mL (≈ 33.1 µM) against Candida [2]; 25 µg/mL (≈ 66.2 µM) in the assay with Aspergillus niger; 25 µg/mL (≈ 66.2 µM) with Staphylococcus aureus; 12.5 µg/mL (≈ 33.1 µM) in the assay with Bacillus subtilis. Further, the MIC in the assay on Pseudomonas aeruginosa and against Enterococcus faecalis was 50 µg/mL (≈ 132 µM) in each case.

In the case of `CN[C@@H]1[C@H](O[C@H]2[C@H](O[C@H]3[C@H](O)[C@@H](O)[C@H](N=C(N)N)[C@@H](O)[C@@H]3N=C(N)N)O[C@@H](C)[C@]2(O)C=O)O[C@@H](CO)[C@H](O)[C@H]1O` [STREPTOMYCIN], the MIC in the assay on Staphylococcus aureus was 25 µg/mL (≈ 43 µM); against Bacillus subtilis, 12.5 µg/mL (≈ 21.5 µM); against Pseudomonas aeruginosa it was 25 µg/mL (≈ 43 µM); in the assay with Enterococcus faecalis, 50 µg/mL (≈ 86 µM).

Consider `CC(=O)N1C(c2ccco2)CC(=O)C(C(C)C)C1c1ccco1` (stereo unspecified), for which the MIC with Aspergillus flavus is 50 µg/mL (≈ 159 µM); in the assay on Candida [1] it was 25 µg/mL (≈ 79.3 µM); with Candida [2] it was 50 µg/mL (≈ 159 µM); in the assay with Aspergillus niger, 50 µg/mL (≈ 159 µM); in the assay with Staphylococcus aureus, 12.5 µg/mL (≈ 39.6 µM); in the assay on Bacillus subtilis, 12.5 µg/mL (≈ 39.6 µM). For the same compound, the minimum inhibitory concentration (MIC) in the assay with Pseudomonas aeruginosa amounted to 25 µg/mL (≈ 79.3 µM); against Enterococcus faecalis, 50 µg/mL (≈ 159 µM).

Regarding `CC(C)C1C(=O)CC(c2ccco2)NC1c1ccco1` (stereo unspecified), the minimal inhibitory concentration (MIC) was over 100 µg/mL against Aspergillus flavus; 25 µg/mL (≈ 91.5 µM) against Candida [1]; 50 µg/mL (≈ 183 µM) against Candida [2]; over 100 µg/mL against Aspergillus niger; over 100 µg/mL in the assay with Staphylococcus aureus; 100 µg/mL (≈ 366 µM) against Bacillus subtilis. The minimal inhibitory concentration (MIC) against Pseudomonas aeruginosa was 50 µg/mL (≈ 183 µM); in the assay on Enterococcus faecalis, over 100 µg/mL.

Regarding `CC(C)C1/C(=N/O)CC(c2ccco2)NC1c1ccco1` (stereo unspecified), the MIC is 25 µg/mL (≈ 86.7 µM) against Aspergillus flavus; 50 µg/mL (≈ 173 µM) against Candida [1]; 50 µg/mL (≈ 173 µM) in the assay with Candida [2]; 100 µg/mL (≈ 347 µM) against Aspergillus niger; 50 µg/mL (≈ 173 µM) in the assay with Staphylococcus aureus; 50 µg/mL (≈ 173 µM) against Bacillus subtilis. Also, the minimum inhibitory concentration (MIC) against Pseudomonas aeruginosa is 100 µg/mL (≈ 347 µM); in the assay on Enterococcus faecalis, 50 µg/mL (≈ 173 µM).

Turning to `CCC(=O)N1C(c2ccco2)CC(=O)C(C(C)C)C1c1ccco1` (stereo unspecified), the MIC against Aspergillus flavus stood at 25 µg/mL (≈ 75.9 µM); against Candida [1] it was 50 µg/mL (≈ 152 µM); in the assay with Candida [2], 12.5 µg/mL (≈ 37.9 µM); with Aspergillus niger, 50 µg/mL (≈ 152 µM); in the assay on Staphylococcus aureus, 25 µg/mL (≈ 75.9 µM); against Bacillus subtilis it was 12.5 µg/mL (≈ 37.9 µM). The minimum inhibitory concentration (MIC) stood at 25 µg/mL (≈ 75.9 µM) in the assay with Pseudomonas aeruginosa and 50 µg/mL (≈ 152 µM) with Enterococcus faecalis.

With `C[C@@H]1[C@H](O)[C@@H](C)/C=C/C=C/C=C/C=C/C=C/C=C/C=C/[C@H](O[C@@H]2O[C@H](C)[C@@H](O)[C@H](N)[C@@H]2O)C[C@@H]2O[C@](O)(C[C@@H](O)C[C@@H](O)[C@H](O)CC[C@@H](O)C[C@@H](O)CC(=O)O[C@H]1C)C[C@H](O)[C@H]2C(=O)O` [AMPHOTERICIN B], the minimal inhibitory concentration (MIC) was 50 µg/mL (≈ 54.1 µM) against Aspergillus flavus, 25 µg/mL (≈ 27.1 µM) in the assay with Candida [1], 25 µg/mL (≈ 27.1 µM) with Candida [2] and 50 µg/mL (≈ 54.1 µM) with Aspergillus niger.

Regarding `CC(C)C1C(=O)CC(c2ccco2)N(C=O)C1c1ccco1` (stereo unspecified), the MIC with Aspergillus flavus came to 50 µg/mL (≈ 166 µM); in the assay on Candida [1], 50 µg/mL (≈ 166 µM); against Candida [2], 25 µg/mL (≈ 83 µM); in the assay with Aspergillus niger, 50 µg/mL (≈ 166 µM); against Staphylococcus aureus, 50 µg/mL (≈ 166 µM); against Bacillus subtilis, 25 µg/mL (≈ 83 µM). The MIC in the assay on Pseudomonas aeruginosa stood at 50 µg/mL (≈ 166 µM); against Enterococcus faecalis, 25 µg/mL (≈ 83 µM).
